Measured values reported in US7605168B2 (Plexxikon, Inc., priority 2004, dated 2009).

Assays:
[1] = target: T1, PDE4B: catalytic domain of human PDE4B from S152-S528 (Homo sapiens, UniProt Q07343); test: PDE4 IC50 determination by Scintillation Proximity Assay (SPA), PDE4B catalytic domain; type: biochemical; details: [3H]cAMP SPA, 30 min at 30° C.
T1 construct: The catalytic domain of human PDE4B from S152-S528; His6 (N, cleaved yes); thrombin cleavage site (N, cleaved yes); made in house; host or cells: E. coli BL21 (DE3) RIL
Protocol: (§1) IC50s were determined by Scintillation Proximity Assay (SPA). The principle of the assay is based on the fact that cAMP, the PDE4 substrate, binds weakly to Yittrium Silicate SPA beads, whereas AMP, the product of PDE4 hydrolysis binds strongly. Thus, the extent of PDE4 hydrolysis of a sample of [^3H]cAMP can be measured because only the [^3H]AMP produced by PDE4 hydrolysis will bind to the SPA beads and produce a scintillation signal.
Enzyme was stored in 50% glycerol at −20°.
(§2) In addition to the compound dilutions, each assay plate contained control wells with 1 μl of DMSO (to define 0% enzyme inhibition) or 1 μl of 200 μM roflumilast (to define 100% enzyme inhibition). Using a Beckman FX robot, 10 μl of [^3H] cAMP (Amersham TRK559) at […] in assay buffer (50 mM Tris, pH 7.5; 8.3 mM MgCl; 1.7 mM EGTA; 0.01% BSA) was transferred to each assay well. Next, 10 μl of PDE4 enzyme in assay buffer was added and the plates were shaken for 30 s. at 1000 rpm to start the cAMP hydrolysis reaction. The concentrations of enzyme used were: PDE4B, 80 ng/ml; PDE4D, 4 ng/ml; PDE4B2, 2.5 μl of 50% glycerol stock/ml; PDE4D5 0.083 μl of 50% glycerol stock/ml. Assay plates were covered and incubated for 30 min. at 30° C. Reactions were stopped by robotic addition of 10 μl of 5 mg/ml SPA beads (Amersham RPNQ0013) in 18 mM ZnSO4. The assay plates were covered with clear plastic film, centrifuged for 1 min. at 1000 RPM to settle the SPA beads, and counted using a Wallac TriLux scintillation counter. IC50's were calculated from the raw assay data by non-linear regression curve fitting using the Assay Explorer software package from MDL.

[2] = target: T2, PDE4B2: full-length human PDE4B2 isozyme (Homo sapiens, UniProt Q07343); test: PDE4 IC50 determination by Scintillation Proximity Assay (SPA), full-length PDE4B2; type: biochemical; details: cell lysate, [3H]cAMP SPA
T2 construct: made in house; host or cells: baculovirus infected insect cells (pFastBacHT)
Protocol: (§3) The enzyme was not purified from the cell lysates, so enzyme concentrations were not determined. Enzyme was stored in 50% glycerol at −20°.
as §1, §2

[3] = target: T3, PDE4D5: full-length human PDE4D5 isozyme (Homo sapiens, UniProt Q08499); test: PDE4 IC50 determination by Scintillation Proximity Assay (SPA), full-length PDE4D5; type: biochemical; details: cell lysate, [3H]cAMP SPA
T3 construct: made in house; host or cells: baculovirus infected insect cells (pFastBacHT)
Protocol: as §3, §1, §2

[4] = test system: TNF-α release from whole blood cultures stimulated with LPS; test: IC50 by TNF alpha production upon stimulation of whole blood cultures with LPS; type: cell-based; details: human whole blood (buffy coat) culture, 100 ng/ml LPS, 4 hours; read-out: h TNFα IC50
Protocol: Compounds were assayed to generate IC50 numbers based on the inhibition of TNF-α release from whole blood cultures, using the following assay protocol (see Table 5 for compounds tested and results). Inhibition of PDE4B results in the inhibition of TNF-α release by whole blood cultures stimulated with lipopolysaccharide (LPS). The measurement of TNF-α release was used to assess compounds as PDE4B inhibitors.
Compounds were provided in DMSO at 20 mM and 2 μl per well was added to one row of a dilution plate. Added 98 μl of RPMI 1640 media with 2.5% heat inactivated FBS to each well containing compound. The same media with 2% DMSO was prepared and 60 μl was added to each of the empty wells in the dilution plate. The compound was serially diluted 1:3 (30 μl to 60 μl of media) for a total of 8 concentrations per compound. Wells were also prepared with 50 μM roflumilast and piclamilast as 100% inhibition controls, and 2% DMSO in media was used as 0% inhibition control. A 20 μl aliquot of each sample was transferred to an assay plate in duplicate.
Human buffy coat was obtained from the Stanford Medical School Blood Center and diluted with 7 volumes of RPMI 1640 media with 1% penicillin/streptomycin and 2.5% heat inactivated FBS. A 160 μl aliquot of the diluted blood was added to each well of the assay plates, mixed and incubated for 1 hour at 37° C. in 5% CO2. LPS (Sigma catalog number L2637) that had been diluted to 1 mg/ml in PBS and stored as 20 μl aliquots at −20° C. was thawed and diluted 1000× to 1 μg/ml. A 20 μl aliquot of this was added to each sample (final concentration 100 ng/ml LPS) after the 1 hour incubation. A background sample was prepared without addition of LPS as well. The samples were mixed on a shaker for one minute at 900 RPM and incubated for 4 hours at 37° C. in 5% CO2. The plates were then put on a shaker for one minute at 900 RPM, followed by centrifuging at 100×g for 10 minutes, deceleration setting of 5. The top 75 μl of supernatant was carefully pipetted to a new plate and frozen at −20° C.
A 50 μl aliquot of incubation buffer (Biosource International Immunoassay Kit:Human TNF-α catalog number KHC3011) was added to each well of a plate coated with monoclonal antibody specific for hTNF-α (Biosource kit). The supernatant blood samples were thawed and a 50 μl aliquot along with 50 μl of diluent buffer (Biosource kit) were added to incubation buffer and the samples were incubated for 2 hours at room temperature. The samples were washed 4 times with 300 μl/well wash buffer (Biosource kit). A 100 μl aliquot of biotinylated anti-TNFalpha (Biosource kit) was added and the samples incubated for 1 hour at room temperature. The samples were washed 4 times with 300 μl/well wash buffer. A 100 μl aliquot of Streptavidin-HRP solution (BioSource kit) was added and the samples incubated for 30 minutes at room temperature. The samples were washed 4 times with 300 μl/well wash buffer. A 100 μl aliquot of Chromagen (Biosource kit) was added and the samples incubated in the dark for 30 minutes. A 100 μl aliquot of stop solution (2N H2SO4) was added to each sample and samples were read at 450 nm on a WallacVictor for 0.1 sec/well.

T1 sequence (Q07343 324-700): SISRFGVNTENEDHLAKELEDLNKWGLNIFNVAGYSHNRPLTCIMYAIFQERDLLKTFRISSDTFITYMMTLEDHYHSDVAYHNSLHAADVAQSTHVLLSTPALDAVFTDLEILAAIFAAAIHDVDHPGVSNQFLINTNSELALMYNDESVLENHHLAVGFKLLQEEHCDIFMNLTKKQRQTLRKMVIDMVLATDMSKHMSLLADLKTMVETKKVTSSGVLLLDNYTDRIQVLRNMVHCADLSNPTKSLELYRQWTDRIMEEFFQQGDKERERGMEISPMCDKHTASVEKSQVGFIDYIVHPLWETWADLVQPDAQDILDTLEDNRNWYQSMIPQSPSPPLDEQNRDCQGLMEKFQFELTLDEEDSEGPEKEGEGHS
T2 sequence (Q07343 with tags, fused parts or gaps isoform Q07343-2): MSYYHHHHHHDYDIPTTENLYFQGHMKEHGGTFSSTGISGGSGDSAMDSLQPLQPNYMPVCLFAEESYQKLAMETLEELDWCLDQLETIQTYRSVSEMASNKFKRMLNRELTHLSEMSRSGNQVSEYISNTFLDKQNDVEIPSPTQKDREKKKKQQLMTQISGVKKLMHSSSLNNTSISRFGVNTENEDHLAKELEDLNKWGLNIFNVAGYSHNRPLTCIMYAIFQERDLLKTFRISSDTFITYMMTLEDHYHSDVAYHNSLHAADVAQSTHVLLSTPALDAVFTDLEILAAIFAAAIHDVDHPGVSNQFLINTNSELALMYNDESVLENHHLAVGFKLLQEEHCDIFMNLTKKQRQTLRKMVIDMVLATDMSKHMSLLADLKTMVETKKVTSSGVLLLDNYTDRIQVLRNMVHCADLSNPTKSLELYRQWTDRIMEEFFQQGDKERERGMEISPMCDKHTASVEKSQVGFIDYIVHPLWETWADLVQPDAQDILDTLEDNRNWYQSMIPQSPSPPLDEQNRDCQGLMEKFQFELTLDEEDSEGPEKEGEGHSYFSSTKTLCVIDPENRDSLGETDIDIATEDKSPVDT
T3 sequence (Q08499 with tags, fused parts or gaps isoform Q08499-6): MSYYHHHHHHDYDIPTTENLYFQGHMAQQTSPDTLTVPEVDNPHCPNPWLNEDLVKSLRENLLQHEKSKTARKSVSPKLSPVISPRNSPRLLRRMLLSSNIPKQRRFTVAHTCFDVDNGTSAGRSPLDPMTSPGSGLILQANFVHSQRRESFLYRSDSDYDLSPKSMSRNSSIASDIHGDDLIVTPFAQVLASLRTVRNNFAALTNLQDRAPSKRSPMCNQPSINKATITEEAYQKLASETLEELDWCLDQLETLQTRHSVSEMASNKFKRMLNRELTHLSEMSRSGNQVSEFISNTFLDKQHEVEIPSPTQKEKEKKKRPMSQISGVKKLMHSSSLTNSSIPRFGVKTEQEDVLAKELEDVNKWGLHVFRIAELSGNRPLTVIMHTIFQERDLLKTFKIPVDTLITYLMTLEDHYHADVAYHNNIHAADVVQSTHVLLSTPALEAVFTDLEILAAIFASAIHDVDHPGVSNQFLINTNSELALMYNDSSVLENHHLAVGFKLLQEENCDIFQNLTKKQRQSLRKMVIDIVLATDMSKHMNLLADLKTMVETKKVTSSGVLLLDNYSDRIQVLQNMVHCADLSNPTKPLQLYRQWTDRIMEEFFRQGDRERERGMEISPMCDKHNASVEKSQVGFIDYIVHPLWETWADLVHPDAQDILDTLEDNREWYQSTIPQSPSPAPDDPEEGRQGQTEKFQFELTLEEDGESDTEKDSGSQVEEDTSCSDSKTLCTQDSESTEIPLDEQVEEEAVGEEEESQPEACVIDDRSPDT

Compound	IC50 [1] [µM]	IC50 [2] [µM]	IC50 [3] [µM]	IC50 [4] [µM]
COc1ccc(-c2cn(S(=O)(=O)c3ccc(C)c4ccccc34)c3ncccc23)cc1OC [Compound 12, 3-(3,4-Dimethoxy-phenyl)-1-(4-methyl-naphthalene-1-sulfonyl)-1H-pyrrolo[2,3-b]pyridine]	< 10	< 10	< 10	> 10
COc1ccc(-c2cn(S(=O)(=O)c3cccc4cnccc34)c3ncccc23)cc1OC [Compound 14, 5-[3-(3,4-Dimethoxy-phenyl)-pyrrolo[2,3-b]pyridine-1-sulfonyl]-isoquinoline]	< 10	< 10	< 10	≤ 10
COc1ccc(-c2cn(S(=O)(=O)c3cccc4ccccc34)c3ncccc23)cc1OC [Compound 16, 3-(3,4-Dimethoxy-phenyl)-1-(naphthalene-1-sulfonyl)-1H-pyrrolo[2,3-b]pyridine]	< 10	< 10	< 10	≤ 10
COc1ccc(-c2cn(S(=O)(=O)c3cccc4cccnc34)c3ccccc23)cc1OC [Compound 21, 8-[3-(3,4-dimethoxy-phenyl)-indole-1-sulfonyl]-quinoline]	< 10	< 10	< 10	≤ 10
COc1ccc(-c2cn(C(=O)Nc3ccc(Cl)cc3)c3ncccc23)cc1OC [Compound 26, 3-(3,4-dimethoxy-phenyl)-pyrrolo[2,3-b]pyridine-1-carboxylic acid (4-chloro-phenyl)-amide]	< 10	< 10	< 10	≤ 10
COc1ccc(NC(=O)n2cc(-c3ccc(OC)c(OC)c3)c3cccnc32)cc1Cl [Compound 27, 3-(3,4-Dimethoxy-phenyl)-pyrrolo[2,3-b]pyridine-1-carboxylic acid (3-chloro-4-methoxy-phenyl)-amide]	< 10	< 10	< 10	≤ 10
COc1cc(NC(=O)n2cc(-c3ccc(OC)c(OC)c3)c3cccnc32)cc(OC)c1 [Compound 29, 3-(3,4-Dimethoxy-phenyl)-pyrrolo[2,3-b]pyridine-1-carboxylic acid (3,5-dimethoxy-phenyl)-amide]	< 10	< 10	< 10	≤ 10
COc1ccc(-c2cn(C(=O)Nc3cccc(C(C)=O)c3)c3ncccc23)cc1OC [Compound 34, 3-(3,4-Dimethoxy-phenyl)-pyrrolo[2,3-b]pyridine-1-carboxylic acid (3-acetyl-phenyl)-amide]	< 10	< 10	< 10	≤ 10
COc1ccc(-c2cn(C(=O)Nc3ccc(Cl)c(Cl)c3)c3ncccc23)cc1OC [Compound 37, 3-(3,4-Dimethoxy-phenyl)-pyrrolo[2,3-b]pyridine-1-carboxylic acid (3,4-dichloro-phenyl)-amide]	< 10	< 10	< 10	≤ 10
COc1ccc(-c2cn(C(=O)Nc3cccc([N+](=O)[O-])c3)c3ncccc23)cc1OC [Compound 38, 3-(3,4-Dimethoxy-phenyl)-pyrrolo[2,3-b]pyridine-1-carboxylic acid (3-nitro-phenyl)-amide]	< 10	< 10	> 10	> 10
COc1ccc(-c2cn(C(=S)Nc3ccccc3)c3ncccc23)cc1OC [Compound 41, 3-(3,4-dimethoxy-phenyl)-pyrrolo[2,3-b]pyridine-1-carbothioic acid phenylamide]	< 10	< 10	< 10	≤ 10
COc1ncc(-c2cn(S(=O)(=O)c3cccc4cccnc34)c3ncccc23)cn1 [Compound 43, 8-[3-(2-methoxy-pyrimidin-5-yl)-pyrrolo[2,3-b]pyridine-1-sulfonyl]-quinoline]	< 10	< 10	< 10	≤ 10
CCOc1ccccc1C(=O)n1ccc2c(-c3ccc(OC)c(OC)c3)ccnc21 [Compound 51, [4-(3,4-Dimethoxy-phenyl)-pyrrolo[2,3-b]pyridin-1-yl]-(2-ethoxy-phenyl)-methanone]	< 10	< 10	< 10	> 10
CCOc1cc([N+](=O)[O-])ccc1C(=O)n1cc(-c2ccc(OC)c(OC)c2)c2cccnc21 [Compound 54, [3-(3,4-Dimethoxy-phenyl)-pyrrolo[2,3-b]pyridin-1-yl]-(2-ethoxy-4-nitro-phenyl)-methanone]	< 10	< 10	< 10	> 10
COc1ccc(-c2cn(C(=O)c3ccccc3)c3ncccc23)cc1OC [Compound 55, [3-(3,4-Dimethoxy-phenyl)-pyrrolo[2,3-b]pyridin-1-yl]phenylmethanone-amide]	< 10	< 10	< 10	≤ 10
COc1ccc(-c2cn(C(=O)c3cnccc3C(F)(F)F)c3ncccc23)cc1OC [Compound 57, [3-(3,4-Dimethoxy-phenyl)-pyrrolo[2,3-b]pyridin-1-yl]-(4-trifluoromethypyridn-3-yl)-methanone-amide]	< 10	< 10	< 10	> 10
COc1ccc(-c2cn(C(=O)c3cccc4ccccc34)c3ncccc23)cc1OC [Compound 58, [3-(3,4-Dimethoxy-phenyl)-pyrrolo[2,3-b]pyridin-1-yl]-(1-naphthyl)-methanone-amide]	< 10	< 10	< 10	≤ 10
COc1ccc(-c2cn(C(=O)c3cccnc3Cl)c3ncccc23)cc1OC [Compound 59, [3-(3,4-Dimethoxy-phenyl)-pyrrolo[2,3-b]pyridin-1-yl]-(2-chloropyridin-3-yl)-methanone-amide]	< 10	< 10	< 10	≤ 10
COc1ccc(-c2cn(C(C)=O)c3ncccc23)cc1OC [Compound 67, 1-[3-(3,4-Dimethoxy-phenyl)-pyrrolo[2,3-b]pyridin-1-yl]-ethanone]	< 10	< 10	< 10	≤ 10
